Laboratory results: patent US20230190947A1, “Hemoglobin-Targeted Drug Delivery For The Treatment of Cancer” (Therapure Biopharma Inc., priority 2016, published 2023)

What was measured:
human colon cancer = experiment: Human colon cancer model: mice orthotopically implanted with GFP-transfected colon cancer tumor fragments; assay type: in vivo
Description: A study testing Hb-FUdR in mice orthotopically implanted with tumor fragments derived from colon cancer cells (transfected with green fluorescence protein for in-life tumor visualization was conducted as follows:
(§1) Study design: Fifty (50) tumor-bearing mice were randomly divided into five groups with ten (10) mice per group. Animals (10 mice per group) were treated with Hb-FUdR at 6, 32, and 161 mg Hb/kg (0.15, 0.74, and 3.7 mg FUdR/kg) twice weekly via intravenous injection (tail vein) at 5 mL/kg. Control untreated animals were treated with PBS at 5 mL/kg. Control FUdR treated animals were treated with 3.7 mg FUdR/kg. Study endpoint: The study was terminated 47 days post tumor inoculation. All remaining mice in each group were sacrificed at this time point. All animals in the PBS treated group and approximately 50% of animals in other treated groups died before the study endpoint. Therefore, survival time between groups was considered one of the criteria to assess the efficacy of the test agents. Primary tumors were excised and weighted at necropsy for subsequent analysis.
The anti-tumor efficacy of Hb-FUdR against the implanted human colon cancer was evaluated by comparing the primary tumor sizes measured twenty-one days after treatment initiation, and the differences in survival time between the Hb-FUdR treated and PBS control groups.

[1] = parameters: species or system mice; settings: mouse, in vivo
Description: as §1
[…]. […] Other symptoms of related toxicity were absent by gross observation.

HCC = settings: SHARP trial; vs. 7.9 months; cited from earlier work
[2] = Hb 0 mg/kg, FUdR 3.7 mg/kg (free drug), 9 mice evaluated

With `O=c1[nH]c(=O)n([C@H]2C[C@H](O)[C@@H](CO)O2)cc1F` [FUdR, floxuridine] the “No. of mice with L.N. met.” value (human colon cancer; [2]) was 6, the “No. of mice with liver met.” value (human colon cancer; [2]) was 4 and the Mean survival time (human colon cancer; Hb 0 mg/kg, FUdR 3.7 mg/kg (free drug), study terminated 47 days post tumor inoculation) was 43.9 days. The Average tumor volume (human colon cancer; Hb 0 mg/kg, FUdR 3.7 mg/kg (free drug), twenty-one days after treatment initiation) was 254.58 ± 196.74 mm^3, the “Survival time of the treated mice” value (human colon cancer; summary statement) was “significantly prolonged survival time” and the Toxicity [1] was “without obvious toxicity”.
In the case of `CNC(=O)c1cc(Oc2ccc(NC(=O)Nc3ccc(Cl)c(C(F)(F)F)c3)cc2)ccn1` [Sorafenib], the Overall survival (HCC) is listed as 10.7 months.
